# In publication PMC10584170, “Machine learning-based phenotypic imaging to characterise the targetable biology of Plasmodium falciparum male gametocytes for the development of transmission-blocking antimalarials” (PLOS Pathogens, 2023):
# Where two headings read alike, the source gives them in different places.
# Columns and labels:
# [1] = test system: P. falciparum female gametocytes; assay: P. falciparum Dual Gamete Formation Assay (PfDGFA), female readout (Pfs25-positive female gametes); format: cell-based, Plasmodium falciparum NF54; conditions: for Selectivity ratio F: HepG2 Tox50 versus female IC50; for inhibition at 2 µM / Average inhibition female (%) / % inhibition female (individual replicates) R1 / % inhibition female (individual replicates) R3 / % inhibition female (individual replicates) R4: 24h preincubation with gametocytes; for IC50: PfDGFA, 24 h incubation with gametocytes before induction, female gamete readout, read-out: Female IC50; for HitlevelF: number of replicates with >50% inhibition in the female readout
# In short: (§1)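 First, day-14 P. falciparum NF54 gametocytes receive compound for 24 h at 37°C in 1% O2/3% CO2. Next, ookinete medium with Cy3 anti-Pfs25 triggers gametogenesis at 28°C and male exflagellation is imaged. Finally, after 24 h in the dark, Cy3-labelled females are imaged.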
# [2] = test system: HepG2 cells; assay: HepG2 cytotoxicity counter-screen; conditions: cytotoxic activity against HepG2 cells
# [3] = test system: P. falciparum male gametocytes; assay: P. falciparum Dual Gamete Formation Assay (PfDGFA), male readout (exflagellation); format: cell-based, Plasmodium falciparum NF54; conditions: for Selectivity Ratio M: HepG2 Tox50 versus male IC50; for inhibition at 2 µM / Average inhibition male (%) / % inhibition male (individual replicates) R1 / % inhibition male (individual replicates) R3 / % inhibition male (individual replicates) R4: 24h preincubation with gametocytes; for IC50: PfDGFA, 24 h incubation with gametocytes before induction, exflagellation readout, read-out: Male IC50; for HitlevelM: number of replicates with >50% inhibition in the male readout
# In short: as §1
# [4] = Plasmodium falciparum, 2µM, average of replicates, read-out: Average inhibition female (%)
# [5] = Plasmodium falciparum, 2µM, replicate R1, read-out: % inhibition female (individual replicates) R1
# [6] = Plasmodium falciparum, 2µM, replicate R2, read-out: % inhibition female (individual replicates) R2
# [7] = Plasmodium falciparum, 2µM, replicate R3, read-out: % inhibition female (individual replicates) R3
# [8] = Plasmodium falciparum, 2µM, replicate R4, read-out: % inhibition female (individual replicates) R4
# [9] = Plasmodium falciparum, 2µM, average of replicates, read-out: Average inhibition male (%)
# [10] = Plasmodium falciparum, 2µM, replicate R1, read-out: % inhibition male (individual replicates) R1
# [11] = Plasmodium falciparum, 2µM, replicate R2, read-out: % inhibition male (individual replicates) R2
# [12] = Plasmodium falciparum, 2µM, replicate R3, read-out: % inhibition male (individual replicates) R3
# [13] = Plasmodium falciparum, 2µM, replicate R4, read-out: % inhibition male (individual replicates) R4
# [14] = Plasmodium falciparum, PfDGFA at 2µM, average of replicates, read-out: Average inhibition female (%)
# [15] = Plasmodium falciparum, PfDGFA at 2µM, replicate R1, read-out: % inhibition female (individual replicates) R1
# [16] = Plasmodium falciparum, PfDGFA at 2µM, replicate R2, read-out: % inhibition female (individual replicates) R2
# [17] = Plasmodium falciparum, PfDGFA at 2µM, replicate R3, read-out: % inhibition female (individual replicates) R3
# [18] = Plasmodium falciparum, PfDGFA at 2µM, replicate R4, read-out: % inhibition female (individual replicates) R4
# [19] = Plasmodium falciparum, PfDGFA at 2µM, average of replicates, read-out: Average inhibition male (%)
# [20] = Plasmodium falciparum, PfDGFA at 2µM, replicate R1, read-out: % inhibition male (individual replicates) R1
# [21] = Plasmodium falciparum, PfDGFA at 2µM, replicate R2, read-out: % inhibition male (individual replicates) R2
# [22] = Plasmodium falciparum, PfDGFA at 2µM, replicate R3, read-out: % inhibition male (individual replicates) R3
# [23] = Plasmodium falciparum, PfDGFA at 2µM, replicate R4, read-out: % inhibition male (individual replicates) R4
# [24] = PfDGFA at 2µM, average of replicates
IC50 [3],Structure (SMILES),Selectivity ratio F [1],"inhibition at 2 µM [1, 4]","inhibition at 2 µM [1, 5]","inhibition at 2 µM [1, 6]","inhibition at 2 µM [1, 7]","inhibition at 2 µM [1, 8]",IC50 ([1]; Plasmodium falciparum),Tox50 [2],Selectivity Ratio M [3],"inhibition at 2 µM [3, 9]","inhibition at 2 µM [3, 10]","inhibition at 2 µM [3, 11]","inhibition at 2 µM [3, 12]","inhibition at 2 µM [3, 13]",IC50 ([3]; Plasmodium falciparum),HitlevelF ([1]; 2µM),HitlevelM ([3]; 2µM),further results
,COc1ccc(Nc2ncc(OC)c(Nc3ccccc3C(N)=O)n2)cc1N1CCN(C)CC1.O=CO [TCMDC-134149],0.66,13.9%,17.6%,16.3%,5.9%,15.7%,7.91 µM,5.24 µM,28.52,94.7%,95.1%,101%,85.5%,97.6%,0.18 µM,,,
,COc1ccc(Nc2ncc(Cl)c(Nc3cccnc3C(N)=O)n2)cc1N1CCN(C)CC1.Cl [TCMDC-134163],0.3,,,,,,> 10 µM,2.98 µM,7.51,,,,,,0.4 µM,0,4,"inhibition at 2 µM [1, 14]: -4.7%; inhibition at 2 µM [1, 15]: 1.7%; inhibition at 2 µM [1, 16]: -23.4%; inhibition at 2 µM [1, 17]: -4.2%; inhibition at 2 µM [1, 18]: 7%; inhibition at 2 µM [3, 19]: 79.9%; inhibition at 2 µM [3, 20]: 77.1%; inhibition at 2 µM [3, 21]: 88.9%; inhibition at 2 µM [3, 22]: 73.4%; inhibition at 2 µM [3, 23]: 80.2%"
,CN1CCN(c2ccc(Nc3ncc(Cl)c(Nc4cccnc4C(N)=O)n3)cc2)CC1.Cl [TCMDC-134164],1.15,-2.7%,-3.8%,5.1%,-16.9%,4.9%,5.47 µM,6.29 µM,13.8,93.6%,95.4%,93.6%,90.2%,95.2%,0.46 µM,,,
,Cc1ccc(C(C(=O)Nc2ccc(N3CCNCC3)c(Cl)c2)c2ccccc2)cc1 (stereo not shown) [TCMDC-134292],1.13,61.9%,54.2%,48.2%,79.2%,66%,> 10 µM,11.32 µM,27.18,93.6%,96.8%,85.1%,98.4%,94.1%,0.42 µM,,,
1.8 µM,COc1c(C2CCN(CCCCNC(=O)c3ccc(-c4ccc(Cl)cc4)c(OCCN(C)C)c3)CC2)ccc2c1CCCC2 [TCMDC-134371],0.69,,,,,,,5.71 µM,3.17,,,,,,,,,"Average inhibition female (%) ([1]; 2µM, average of replicates): 90.2%; % inhibition female (individual replicates) R1 ([1]; 2µM, replicate R1): 90.8%; % inhibition female (individual replicates) R3 ([1]; 2µM, replicate R3): 96.4%; % inhibition female (individual replicates) R4 ([1]; 2µM, replicate R4): 89.7%; IC50 [1]: 8.29 µM; Average inhibition male (%) ([3]; 2µM, average of replicates): 98.8%; % inhibition male (individual replicates) R1 ([3]; 2µM, replicate R1): 97.3%; % inhibition male (individual replicates) R3 ([3]; 2µM, replicate R3): 99.5%; % inhibition male (individual replicates) R4 ([3]; 2µM, replicate R4): 100.2%"
,COc1cc2c(cc1S(=O)(=O)c1ccc(COc3ccc(C(F)(F)F)cc3)cc1)CNCC2.Cl [TCMDC-134479],1.66,,,,,,> 10 µM,16.6 µM,11.99,,,,,,1.38 µM,0,4,"inhibition at 2 µM [1, 14]: 10%; inhibition at 2 µM [1, 15]: 16.9%; inhibition at 2 µM [1, 16]: 9.1%; inhibition at 2 µM [1, 17]: -0.43%; inhibition at 2 µM [1, 18]: 14.6%; inhibition at 2 µM [3, 19]: 89.2%; inhibition at 2 µM [3, 20]: 89.3%; inhibition at 2 µM [3, 21]: 88%; inhibition at 2 µM [3, 22]: 76%; inhibition at 2 µM [3, 23]: 104%"
0.32 µM,CC(C#N)Cc1ccc(-c2cnc(N)c3cc(-c4ccnc(N)n4)ccc23)cc1 (stereo not shown) [TCMDC-134547],0.24,,,,,,,2.39 µM,7.45,,,,,,,0,4,"Average inhibition female (%) [1, 24]: 0.03%; % inhibition female (individual replicates) R1 ([1]; PfDGFA at 2µM, replicate R1): 9.4%; % inhibition female (individual replicates) R3 ([1]; PfDGFA at 2µM, replicate R3): -8.0%; % inhibition female (individual replicates) R4 ([1]; PfDGFA at 2µM, replicate R4): 0.7%; Average inhibition male (%) [3, 24]: 85.1%; % inhibition male (individual replicates) R1 ([3]; PfDGFA at 2µM, replicate R1): 91.7%; % inhibition male (individual replicates) R3 ([3]; PfDGFA at 2µM, replicate R3): 80.2%; % inhibition male (individual replicates) R4 ([3]; PfDGFA at 2µM, replicate R4): 74.9%"
1.56 µM,COc1cccc(OC)c1CN1CCC(N(C)CCCCCCCCCN2CCC(OC(=O)Nc3ccccc3-c3ccccc3)CC2)CC1 [TCMDC-134690],0.8,,,,,,,3.03 µM,1.95,,,,,,,,,"Average inhibition female (%) ([1]; 2µM, average of replicates): 49.9%; % inhibition female (individual replicates) R1 ([1]; 2µM, replicate R1): 26.2%; % inhibition female (individual replicates) R3 ([1]; 2µM, replicate R3): 20.7%; % inhibition female (individual replicates) R4 ([1]; 2µM, replicate R4): 73.0%; IC50 [1]: 3.8 µM; Average inhibition male (%) ([3]; 2µM, average of replicates): 94.5%; % inhibition male (individual replicates) R1 ([3]; 2µM, replicate R1): 97.5%; % inhibition male (individual replicates) R3 ([3]; 2µM, replicate R3): 83.2%; % inhibition male (individual replicates) R4 ([3]; 2µM, replicate R4): 100.9%"
,Cc1cccc(Nc2nc(N[C@@H]3CCCNC3)nc3cc[nH]c(=O)c23)c1.O=C(O)C(F)(F)F [TCMDC-134835],0.58,-0.142%,6.3%,4.6%,-8.3%,-3.2%,7.69 µM,4.45 µM,21.63,97.3%,96.8%,100%,,94.9%,0.21 µM,,,
,Cc1cccc(Nc2nc(NCCCCN)nc3cc[nH]c(=O)c23)c1.O=C(O)C(F)(F)F [TCMDC-134946],2.87,,,,,,> 10 µM,28.66 µM,75.16,,,,,,0.38 µM,0,4,"inhibition at 2 µM [1, 14]: 9%; inhibition at 2 µM [1, 15]: 6.6%; inhibition at 2 µM [1, 16]: 23%; inhibition at 2 µM [1, 17]: 13.1%; inhibition at 2 µM [1, 18]: -6.7%; inhibition at 2 µM [3, 19]: 89.5%; inhibition at 2 µM [3, 20]: 94.1%; inhibition at 2 µM [3, 21]: 93.5%; inhibition at 2 µM [3, 22]: 87.3%; inhibition at 2 µM [3, 23]: 82.9%"
,O=C(O)C(F)(F)F.O=c1[nH]ccc2nc(N[C@@H]3CCCNC3)nc(Nc3ccc(S(=O)(=O)N4CCOCC4)cc3)c12 [TCMDC-135038],2.68,14.1%,2.2%,10.6%,4.3%,39.1%,8.17 µM,21.89 µM,342.32,97.4%,93.1%,99.1%,99.2%,98.2%,0.06 µM,,,

Structure (SMILES),IC50 [3],Selectivity ratio F [1],"inhibition at 2 µM [1, 4]","inhibition at 2 µM [1, 5]","inhibition at 2 µM [1, 6]","inhibition at 2 µM [1, 7]","inhibition at 2 µM [1, 8]",IC50 ([1]; Plasmodium falciparum),Tox50 [2],Selectivity Ratio M [3],"inhibition at 2 µM [3, 9]","inhibition at 2 µM [3, 10]","inhibition at 2 µM [3, 11]","inhibition at 2 µM [3, 12]","inhibition at 2 µM [3, 13]",IC50 ([3]; Plasmodium falciparum),HitlevelF ([1]; 2µM),HitlevelM ([3]; 2µM),further results
O=C(O)C(F)(F)F.O=c1[nH]ccc2nc(N[C@@H]3CCNC3)nc(Nc3cc(Cl)cc(Cl)c3)c12 [TCMDC-135052],1.53 µM,1.49,,,,,,,7.37 µM,4.82,,,,,,,,,"Average inhibition female (%) ([1]; 2µM, average of replicates): 61.3%; % inhibition female (individual replicates) R1 ([1]; 2µM, replicate R1): 75.7%; % inhibition female (individual replicates) R3 ([1]; 2µM, replicate R3): 60.7%; % inhibition female (individual replicates) R4 ([1]; 2µM, replicate R4): 86.1%; IC50 [1]: 4.94 µM; Average inhibition male (%) ([3]; 2µM, average of replicates): 90.0%; % inhibition male (individual replicates) R1 ([3]; 2µM, replicate R1): 96.4%; % inhibition male (individual replicates) R3 ([3]; 2µM, replicate R3): 98.4%; % inhibition male (individual replicates) R4 ([3]; 2µM, replicate R4): 88.5%"
